A short description of data set [1]: Permeability of model drugs across epithelial (MDCK II) barrier on transwell after USMB or sham treatment. To be noted: dog, MDCK; 0 MPa (sham); apical-to-basolateral; read-out: apparent permeability coefficient (Papp). The class given is in vitro ADME, canine. As for the experimental part: (§1) For the permeability studies, epithelial cells were cultured as tight monolayers on transwell membranes. […] Prior to cell seeding, the transwell membranes were equilibrated for 10 min with culture medium at room temperature. […] The permeability of various test compounds across epithelial monolayers cultured on transwell membranes was studied in the apical-to-basolateral direction (Figure 1A). […] Ultrasound experiments were performed using an unfocused, single-element transducer with 20 mm diameter (PA420, Precision Acoustics, Dorchester, UK). […] The resulting signal was then amplified (AG1012, T&C Power Conversion Inc., New York, NY, USA) before it was sent to the ultrasound transducer. A dedicated sonication tank compatible with transwell inserts was used for the USMB experiments (Figure 1B). The ultrasound transducer was positioned at the bottom of the bath and about 250 mL of PBS at 37 °C was added. Subsequently, the transwell insert was immersed in the bath with the transwell membrane covered with cells facing down (Figure 1B) at a fixed axial distance (80 mm) from the ultrasound transducer. Transwell inserts were randomly assigned to USMB-treated or sham-treated sample groups. Following immersion of USMB-treated samples in the sonication bath, 500 μL of freshly mixed SonoVue^TM microbubbles (Bracco, Milan, Italy) was injected near the cells using a curved-tip 19G needle (Figure 1C). […] Microbubbles were allowed to float for 1 min so that direct contact with the cells was assured. Subsequently, ultrasound was applied for 1 min with acoustic peak negative pressure (Pneg) ranging between 0.3 and 0.7 MPa. […] Sham-treated samples were immersed in the PBS bath for 2 min and served as negative controls (0 MPa). […] Immediately after USMB treatment, transwell inserts were removed from the sonication bath (containing PBS) and were placed in a new six-well plate. […] The initial concentration of test compounds on the apical side was 1 μCi/mL for propranolol and mannitol and 200 μM for 6-carboxyfluorescein and fluorescent dextrans. An overview of the relevant physicochemical characteristics of the test compounds used in the permeability experiments is given in Table 1. […] The volume of removed sample was replaced with fresh HBSS. During the experiment, cells were kept at 37 °C and shaking at 170 rounds per minute. In the experiments where fluorescent compounds were used, samples were protected from light at all times. The samples containing radioactively-labelled compounds were equilibrated overnight in liquid scintillation cocktail for radiometric detection (Ultima Gold, 6013321, Perkin Elmer) at room temperature. Detection of radioactivity counts was determined by a microplate counter for radiometric counting (MicroBeta, 2450, Perkin Elmer). Intensity of fluorescence signals was determined by a spectrofluorophotometer (FP 8300, Jasco Benelux BV, Utrecht, The Netherlands). 6-carboxyfluorescein was excited at 492 nm and emission was detected at 517/5 nm (center wavelength/bandwidth) and TRITC-dextrans were excited at 550 nm and detected at 575/5 nm. Background radioactivity and fluorescence signal from HBSS were subtracted from the measurements. […] Q is the flux of the test compound (μg/s), C0 is the initial concentration of the test compound at the apical side (μg/mL), and A is the surface area of the transwell membrane (cm^2).

The test system of data set [2] is epithelial (MDCK II) cell barrier. The description is as above. The class given is in vitro ADME, canine. To be noted: for total permeated amount: 0 MPa (sham, absence of USMB), 120 min, apical-to-basolateral; for effect of USMB on permeability across epithelial barrier: increasing ultrasound pressures 0.3-0.7 MPa vs sham. How it is done:
as §1

Data set [3] relates to endothelial (HUVEC) barrier. Description: Permeability of model drugs across endothelial (HUVEC) barrier on transwell. The class given is in vitro ADME, Human. From the text:
Supplementary Information: The Effect of Microbubble-As-sisted Ultrasound on Molecular Permeability across Cell Barri- […]
Charis Rousou, Josanne de Maar, Boning Qiu, Kim van der Wurff-Jacobs, Marika Ruponen, Arto Urtti, Sabrina Oliveira, Chrit Moonen, Gert Storm, Enrico Mastrobattista and Roel Deckers SI-1. Materials and methods
SI-1.1. Culture of endothelial cells
Human umbilical vein endothelial cells (HUVEC) were acquired from Lonza (Verviers, Belgium) and cultured in Endothelial Basal Medium (EBM-2) supplemented with growth factors (Growth Medium 2 SupplementMix®, PromoCell, Heidelberg Germany) and 0.1% antibiotics (gentamicin/amphotericin B, Gibco, New York, USA). Cells were sub-cultured 1-2 times per week in dilution ratios between 1:3-1:6 and were used up to passage number 7.
SI-1.2. Differentiation of endothelial cells […]
The effect of USMB treatment on the viability of epithelial cells was examined using the AlamarBlue assay. […] Next, the solution from the apical side was removed and fluorescence intensity was analyzed with a spectrofluorophotometer (FP 8300, Jasco) at excitation and emission wavelengths of 571 nm and 584/5 nm (center wavelength/bandwidth), respectively. Cell viability of each group was calculated as percentage fluorescent signal relative to that of sham treated cells. […]

The conditions of data set [4]: cited from earlier work; for Hydrophilic/Lipophilic: classification in Table 1.

Several values for one entry are separate records, joined by “and”; a condition that tells them apart may be missing. Equal values may be shown once. Entries after “also recorded” stand apart in the source; their conditions may differ.

As to `O=C(O)c1ccc(C(=O)O)c(-c2c3ccc(=O)cc-3oc3cc(O)ccc23)c1` [6-carboxyfluorescein], the Papp A→B at 120 min, 200 µM in data set [1] was 0.06 ×10⁻⁶ cm/s. In data set [2], the total permeated amount is 4.06% and 4.1 ± 0.5%; the “effect of USMB on permeability across epithelial barrier” value (from here on “effect of USMB”) was “did not have a significant effect; also recorded: lack of measurable effect”. The compound further showed a permeated amount in data set [3] (control samples (0 MPa), 120 minutes, endothelial barrier) of 5.14%. The “Papp endothelial (HUVEC) barrier relative to epithelial (MDCK II) barrier” value in data set [3] (sham treatment, absence of USMB) is 22 times and ~ 20 times. In addition, the Hydrophilic/Lipophilic entry in data set [4] was “Hydrophilic”. The LogD in data set [4] (octanol/water partition coefficient at pH 7.4) is given as −3.2.
With `OC[C@@H](O)[C@@H](O)[C@H](O)[C@H](O)CO` [Mannitol, mannitol], in data set [2], the total permeated amount turned out to be 5.6 ± 1.4% and the “effect of USMB” value is “did not have a significant effect; also recorded: lack of measurable effect”. Moreover, the Hydrophilic/Lipophilic entry in data set [4] is on record as “Hydrophilic”.
On to `CC(C)NCC(O)COc1cccc2ccccc12` (stereo not shown) [Propranolol, propranolol], for which, in data set [2], the total permeated amount was 29.1 ± 2.2% and the “effect of USMB” value was “did not have a significant effect”. Moreover, in data set [4], the Hydrophilic/Lipophilic result was “Lipophilic”.

For orientation: LogD means the decadic logarithm of the distribution of all forms, ionised or not, between an organic phase and buffer at a given pH.

These data come from publication PMC8949944, “The Effect of Microbubble-Assisted Ultrasound on Molecular Permeability across Cell Barriers” (Pharmaceutics, 2022).
